From patent US20230364118A1, “RIBITOL TREATMENT” (priority 2020, published 2023)
“Also recorded” adds a separate entry of the source. Like-named read-outs stand apart in the source and are kept apart here.

Columns and labels:
[1] = Metabolic stability in liver microsomes, cytosol, hepatocytes; assay type: in vitro ADME
Description: Metabolic stability of ribitol was conducted in liver microsomes, cytosol, and primary hepatocytes, from CD-1 mouse, Sprague-Dawley rat, Gottingen minipig, and human at a concentration of ribitol of 10 μM.

[2] = In vitro permeability study; assay type: in vitro ADME; details: human, Caco-2, 300 μg/mL
Description: (§1) The absorption of ribitol was evaluated in Caco-2 cells at a concentration of 300 μg/mL. The apparent permeability values for apical (A)-to-basal (B) and B-to-A transport were <0.4 and […], respectively.

[3] = system: Caco-2 cells; test: In vitro permeability study; assay type: in vitro ADME
Description: as §1

[4] = 28-day repeat-dose oral toxicokinetics; assay type: in vivo, Bama minipig; details: for AUC(0-t): read-out: AUC0-24
Description: Toxicokinetics of ribitol was evaluated as part of the 28-day toxicology study in male and female Bama minipig. […] Animals in control group were dosed for 28 days twice daily with the vehicle only (Purified Water). On Days 1 and 28, blood samples were collected at 0 (pre first dose), 0.5, 1, 2, 4, 6 (pre-second dose), 6.5, 7, 8, 10, 12, and 24 hours from all available animals.

[5] = Sprague-Dawley, rat, liver cytosol, Cytosol
[6] = Sprague-Dawley, rat, liver microsomes, Microsomes
[7] = Sprague-Dawley, rat, primary hepatocytes, Hepatocytes
[8] = human, liver microsomes, Microsomes
[9] = human, primary hepatocytes, Hepatocytes
[10] = 1.0 g/kg/dose BID (2.0 g/kg/day, NOAEL), Day 28, Female
[11] = 1.0 g/kg/dose BID (2.0 g/kg/day, NOAEL), Day 28, Male

OC[C@@H](O)[C@@H](O)[C@@H](O)CO [ribitol, (2R,3s,4S)-Pentane-1,2,3,4,5-pentol]
half-life at 10 μM ([1]; Gottingen, minipig, primary hepatocytes, Hepatocytes): > 6.07 h
CLint scaled at 10 μM [1, 5]: 4.83 mL/min/kg
half-life at 10 μM [1, 5]: 4.3 h
CLint scaled at 10 μM [1, 6]: < 13.3 mL/min/kg
half-life at 10 μM [1, 6]: > 3.12 h
CLint scaled at 10 μM [1, 7]: < 8.89 mL/min/kg
half-life at 10 μM [1, 7]: > 6.07 h
CLint scaled at 10 μM ([1]; human, liver cytosol, Cytosol): 1.64 mL/min/kg
half-life at 10 μM ([1]; human, liver cytosol, Cytosol): 6.35 h
CLint scaled at 10 μM [1, 8]: < 6.66 mL/min/kg
half-life at 10 μM [1, 8]: > 3.12 h
CLint scaled at 10 μM [1, 9]: < 5.28 mL/min/kg
half-life at 10 μM [1, 9]: > 6.07 h
Papp A→B at 300 μg/mL ([2]; read-out: apparent permeability A-to-B): < 0.4 ×10⁻⁶ cm/s
Papp B→A at 300 μg/mL ([2]; read-out: apparent permeability B-to-A): < 0.1 ×10⁻⁶ cm/s
P-gp substrate [3]: not a P-glycoprotein (P-gp) substrate
permeability class [3]: low permeability
AUC0-24 [4, 10]: 1980 ± 1040 µg·h/mL
Cmax [4, 10]: 281 ± 141 µg/mL
AUC0-24 [4, 11]: 2560 ± 526 µg·h/mL
Cmax [4, 11]: 475 ± 97.7 µg/mL
drug accumulation ([4]; after 28-day repeated oral administration, any dose level): no marked drug accumulation; also recorded: no apparent ribitol drug accumulation
Tmax ([4]; both sexes, Bama, minipig, plasma, oral, post dose and post second dose, Day 1 or Day 28, range): 0.5 to 2 h
AUC(0-t) ([4]; female, Bama, minipig, plasma, po, 0.1 g/kg, 0.1 g/kg/dose BID, Day 1, Female, mean ± SD): 268 ± 129 µg·h/mL
Cmax ([4]; female, Bama, minipig, plasma, po, 0.1 g/kg, 0.1 g/kg/dose BID, Day 1, Female, mean ± SD, read-out: Cmax): 39.6 ± 23.3 µg/mL
Tmax ([4]; female, Bama, minipig, plasma, po, 0.1 g/kg, 0.1 g/kg/dose BID, Day 1, Female, median (range)): 5 h
AUC(0-t) ([4]; female, Bama, minipig, plasma, po, 0.1 g/kg, 0.1 g/kg/dose BID, Day 28, Female, mean ± SD): 257 ± 82.6 µg·h/mL
Cmax ([4]; female, Bama, minipig, plasma, po, 0.1 g/kg, 0.1 g/kg/dose BID, Day 28, Female, mean ± SD, read-out: Cmax): 37.2 ± 17.8 µg/mL
Tmax ([4]; female, Bama, minipig, plasma, po, 0.1 g/kg, 0.1 g/kg/dose BID, Day 28, Female, median (range)): 7 h
AUC(0-t) ([4]; female, Bama, minipig, plasma, po, 0.3 g/kg, 0.3 g/kg/dose BID, Day 1, Female, mean ± SD): 605 ± 83.4 µg·h/mL
Cmax ([4]; female, Bama, minipig, plasma, po, 0.3 g/kg, 0.3 g/kg/dose BID, Day 1, Female, mean ± SD, read-out: Cmax): 98.4 ± 28 µg/mL
Tmax ([4]; female, Bama, minipig, plasma, po, 0.3 g/kg, 0.3 g/kg/dose BID, Day 1, Female, median (range)): 4.3 h
AUC(0-t) ([4]; female, Bama, minipig, plasma, po, 0.3 g/kg, 0.3 g/kg/dose BID, Day 28, Female, mean ± SD): 894 ± 125 µg·h/mL
Cmax ([4]; female, Bama, minipig, plasma, po, 0.3 g/kg, 0.3 g/kg/dose BID, Day 28, Female, mean ± SD, read-out: Cmax): 139 ± 40.9 µg/mL
Tmax ([4]; female, Bama, minipig, plasma, po, 0.3 g/kg, 0.3 g/kg/dose BID, Day 28, Female, median (range)): 4.3 h
AUC(0-t) ([4]; female, Bama, minipig, plasma, po, 1 g/kg, 1.0 g/kg/dose BID (2.0 g/kg/day, NOAEL), Day 28, Female): 1980 µg·h/mL
Cmax ([4]; female, Bama, minipig, plasma, po, 1 g/kg, 1.0 g/kg/dose BID (2.0 g/kg/day, NOAEL), Day 28, Female, read-out: Cmax): 281 µg/mL
AUC(0-t) ([4]; female, Bama, minipig, plasma, po, 1 g/kg, 1.0 g/kg/dose BID, Day 1, Female, mean ± SD): 1770 ± 582 µg·h/mL
Cmax ([4]; female, Bama, minipig, plasma, po, 1 g/kg, 1.0 g/kg/dose BID, Day 1, Female, mean ± SD, read-out: Cmax): 261 ± 82.4 µg/mL
Tmax ([4]; female, Bama, minipig, plasma, po, 1 g/kg, 1.0 g/kg/dose BID, Day 1, Female, median (range)): 6.8 h
Tmax ([4]; female, Bama, minipig, plasma, po, 1 g/kg, 1.0 g/kg/dose BID, Day 28, Female, median (range)): 7 h
AUC(0-t) ([4]; female, Bama, minipig, plasma, po, 2 g/kg/day, 1.0 g/kg/dose BID (2.0 g/kg/day, NOAEL), Day 28, Female): 1980 µg·h/mL
Cmax ([4]; female, Bama, minipig, plasma, po, 2 g/kg/day, 1.0 g/kg/dose BID (2.0 g/kg/day, NOAEL), Day 28, Female, read-out: Cmax): 281 µg/mL
AUC(0-t) ([4]; male, Bama, minipig, plasma, po, 0.1 g/kg, 0.1 g/kg/dose BID, Day 1, Male, mean ± SD): 210 ± 75 µg·h/mL
Cmax ([4]; male, Bama, minipig, plasma, po, 0.1 g/kg, 0.1 g/kg/dose BID, Day 1, Male, mean ± SD, read-out: Cmax): 39.8 ± 16.8 µg/mL
Tmax ([4]; male, Bama, minipig, plasma, po, 0.1 g/kg, 0.1 g/kg/dose BID, Day 1, Male, median (range)): 6.8 h
AUC(0-t) ([4]; male, Bama, minipig, plasma, po, 0.1 g/kg, 0.1 g/kg/dose BID, Day 28, Male, mean ± SD): 215 ± 68.9 µg·h/mL
Cmax ([4]; male, Bama, minipig, plasma, po, 0.1 g/kg, 0.1 g/kg/dose BID, Day 28, Male, mean ± SD, read-out: Cmax): 37.2 ± 14.2 µg/mL
Tmax ([4]; male, Bama, minipig, plasma, po, 0.1 g/kg, 0.1 g/kg/dose BID, Day 28, Male, median (range)): 3.8 h
AUC(0-t) ([4]; male, Bama, minipig, plasma, po, 0.3 g/kg, 0.3 g/kg/dose BID, Day 1, Male, mean ± SD): 539 ± 215 µg·h/mL
Cmax ([4]; male, Bama, minipig, plasma, po, 0.3 g/kg, 0.3 g/kg/dose BID, Day 1, Male, mean ± SD, read-out: Cmax): 104 ± 52.1 µg/mL
Tmax ([4]; male, Bama, minipig, plasma, po, 0.3 g/kg, 0.3 g/kg/dose BID, Day 1, Male, median (range)): 4.3 h
AUC(0-t) ([4]; male, Bama, minipig, plasma, po, 0.3 g/kg, 0.3 g/kg/dose BID, Day 28, Male, mean ± SD): 585 ± 227 µg·h/mL
Cmax ([4]; male, Bama, minipig, plasma, po, 0.3 g/kg, 0.3 g/kg/dose BID, Day 28, Male, mean ± SD, read-out: Cmax): 123 ± 78.2 µg/mL
Tmax ([4]; male, Bama, minipig, plasma, po, 0.3 g/kg, 0.3 g/kg/dose BID, Day 28, Male, median (range)): 0.8 h
AUC(0-t) ([4]; male, Bama, minipig, plasma, po, 1 g/kg, 1.0 g/kg/dose BID (2.0 g/kg/day, NOAEL), Day 28, Male): 2560 µg·h/mL
Cmax ([4]; male, Bama, minipig, plasma, po, 1 g/kg, 1.0 g/kg/dose BID (2.0 g/kg/day, NOAEL), Day 28, Male, read-out: Cmax): 475 µg/mL
AUC(0-t) ([4]; male, Bama, minipig, plasma, po, 1 g/kg, 1.0 g/kg/dose BID, Day 1, Male, mean ± SD): 1930 ± 373 µg·h/mL
Cmax ([4]; male, Bama, minipig, plasma, po, 1 g/kg, 1.0 g/kg/dose BID, Day 1, Male, mean ± SD, read-out: Cmax): 365 ± 93.6 µg/mL
Tmax ([4]; male, Bama, minipig, plasma, po, 1 g/kg, 1.0 g/kg/dose BID, Day 1, Male, median (range)): 3.8 h
Tmax ([4]; male, Bama, minipig, plasma, po, 1 g/kg, 1.0 g/kg/dose BID, Day 28, Male, median (range)): 0.8 h
AUC(0-t) ([4]; male, Bama, minipig, plasma, po, 2 g/kg/day, 1.0 g/kg/dose BID (2.0 g/kg/day, NOAEL), Day 28, Male): 2560 µg·h/mL
Cmax ([4]; male, Bama, minipig, plasma, po, 2 g/kg/day, 1.0 g/kg/dose BID (2.0 g/kg/day, NOAEL), Day 28, Male, read-out: Cmax): 475 µg/mL
